Read-outs that look alike come from different tables or passages of the source.
How the values were obtained:
insulin secretion = conditions: at comparable dosages; cited from earlier work
[1] = literature clinical trials; cited from earlier work
[2] = maximal 200 mg/day divided in three dosages, eight weeks, 24 hyperinsulinemic patients; placebo 5.0 kg; cited from earlier work
[3] = for Weight: 14 obese men after 6 months oral Diazoxide (mean 600±54 mg/day), mean ± SE, baseline 115.1 ± 3.4; for Waist circumference: baseline 116.9 ± 1.4
Experimental: All subjects received were explained the physiological principle of this study. They also received dietary advice to reduce caloric intake to the calculated basal requirements for ideal body weight (based on the Harrison-Bennedict equation) and the instruction to increase walking exercise to at least 30 minutes a day. All subjects were allowed to do more physical exercise; the amount of daily physical exercise was not recorded. All subjects were instructed how to perform home glucose measurements (HGM). Blood samples were taken in the fasting state, (a) 2 hours after breakfast, just before lunch, (b) 2 hours after lunch, just before dinner, (c) 2 hours after dinner, at bedtime, and (d) at 3 am.
Baseline measurements included body weight, body height, abdominal circumference, body composition by total body dual energy X-ray absorptiometry (DEXA), supine and upright blood pressure, HGM for two days and the assessment of serum glucose levels and serum insulin levels in response to a standarised test meal. […] Venous blood samples were taen through a venous line inserted into the forearm at −30, 0, 30, 45, 60, 90, 120, 180, 240 and 300 minutes.
After completion of all baseline measurements, the subjects started Diazoxide 50 mg (three times a day) which was taken before each meal. Subsequently, the outpatient clinic was visited every month where the following data were recorded: body weight, abdominal circumference, supine and upright blood pressure, the results of a two-day, 8-point HGM performed in the week preceding the visit and adverse effects. Every visit, the daily Diazoxide dose was increased by 3×50 mg until a maximum of 300 mg (three times a day) was reached or until adverse side effects occurred. The Diazoxide dose was not increased if clinically relevant edema persisted for ore than a month, if upright systolic blood pressure was <110 mm Hg, if upright diastolic blood pressure was <70 mm Hg, or if fasting home glucose level was >7 nmol/l, or non-fasting home glucose level was >11 nmol/l.
After six months of treatment, all measurements were repeated including the meal test. Diazoxide was taken at t−30. Blood samples taken during the meal test at t120 were also analysed for Diazoxide levels. […] The results of total body DEXA were expressed as kg lean body mass, fat mass and bone mass. Normal values for serum glucose levels and serum insuli levels during the test meal were obtained by performing this test in ten healthy, age-matched, non-obese men (BMI about 20 to about 25 kg/m^2).
All data are shown as mean values±standard error (SE). The paired t-test was used to analyse the response to Diazoxide treatment, employing the Bonferoni correction for multiple comparisons. A p-value of less than 0.05 was considered to be statistically significant.

[4] = Plasma Diazoxide level by HPLC/UV; type: in vivo; conditions: male, human, at six months, mean daily dose 600±54 mg (5.7±0.5 mg/kg), oral, three times a day, read-out: plasma DZX level
Source text: Diazoxide was taken at t−30.

plasma insulin levels = conditions: one week, cited from earlier work
[5] = test system: plasma insulin and glucose levels; assay: Standardised 500 kCal meal test before and after six months of Diazoxide: plasma glucose and insulin; type: in vivo, human; set-up: Whole Body Insulin Sensitivity: unit not given here
[6] = test system: blood glucose and insulin levels; conditions: about 0.4 to about 0.8 mg/kg body weight before each meal; subjects with postprandial hyperglycemia and reactive hypoglycemia; cited from earlier work
[7] = cited from earlier work
[8] = 8-week weight-loss diet, hyperinsulinaemic obese subjects; cited from earlier work
[9] = DEXA, 6 months vs baseline, P<0.001
[10] = oral 300 mg per day divided in three dosages
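Wherever change of LDL cholesterol is given: obese men given oral Diazoxide before meals with dose raised monthly up to 300 mg three times daily, plus diet and walking advice, measured at baseline and after six months.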
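Wherever change of systolic blood pressure is given: obese men given oral Diazoxide before meals with dose raised monthly up to 300 mg three times daily, plus diet and walking advice, measured at baseline and after six months.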
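Wherever decrease of diastolic blood pressure is given: obese men given oral Diazoxide before meals with dose raised monthly up to 300 mg three times daily, plus diet and walking advice, measured at baseline and after six months.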
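Wherever increase of adiponectin levels is given: obese men given oral Diazoxide before meals with dose raised monthly up to 300 mg three times daily, plus diet and walking advice, measured at baseline and after six months.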

Structure (SMILES): CNC(=NS(=O)(=O)c1ccc(Cl)cc1)N1C[C@H](c2ccccc2)C(c2ccc(Cl)cc2)=N1 [Compound A, (4S)-3-(4-chlorophenyl)-N′-[(4-chlorophenyl)sulfonyl]-N-methyl-4-phenyl-4,5-dihydro-1-H-pyrazole-1-carboximidamide]
- inhibiting insulin secretion compared with Diazoxide (insulin secretion): more effective than Diazoxide

Structure (SMILES): Cc1c(C(=O)NN2CCCCC2)nn(-c2ccc(Cl)cc2Cl)c1-c1ccc(Cl)cc1 [Rimonabant]
- (placebo-subtracted) net weight loss [1]: about 6 kg

Structure (SMILES): CCCCCCCCCCC[C@@H](C[C@@H]1OC(=O)[C@H]1CCCCCC)OC(=O)[C@H](CC(C)C)NC=O [Orlistat]
- (placebo-subtracted) net weight loss [1]: ~3 kg

Structure (SMILES): CC1=NS(=O)(=O)c2cc(Cl)ccc2N1 [Diazoxide, 7-chloro-3-methyl-4H-1,2,4-benzothiadiazine 1,1-dioxide]
- weight loss [2]: 9.8 kg
- change of LDL cholesterol ([3]; 6 months vs baseline): did not change significantly
- change of systolic blood pressure ([3]; 6 months vs baseline): did not change
- decrease of diastolic blood pressure ([3]; 6 months vs baseline, 95% CI: 6.5-15.4 mm Hg, P<0.001): 10.9±2.3 mm Hg
- increase of adiponectin levels ([3]; 6 months vs baseline, P<0.001): 100±17%
- increase of HbAlc ([3]; 6 months vs baseline, P<0.02): 0.5 % points
- main dose limiting events ([3]; 14 men, six months, 300 to 900 mg/day, other adverse effects not observed): Hyperglycaemia (n=4) and edema (n=8)
- Weight ([3]; P<0.001): 105.7 ± 3.5 kg
- Weight ([3]; P<0.001, listed as DZX): 105.7 ± 3.8 kg
- Bone Mass ([3]; DEXA after 6 months Diazoxide, baseline 3.35 ± 0.14, NS): 3.47 ± 0.11 kg
- Fat Mass ([3]; DEXA after 6 months Diazoxide, baseline 40.1 ± 1.8, P<0.001): 30.7 ± 2.1 kg
- Soft Tissue LBM ([3]; DEXA after 6 months Diazoxide, baseline 70.2 ± 2.0, NS): 70.6 ± 2.4 kg
- change in soft tissue lean body mass or bone mass ([3]; DEXA, 6 months vs baseline): without a concomitant change
- change of total body fat mass [3, 9]: −23.3%
- decrease of total body fat mass [3, 9]: 9.5 ± 1.9 kg
- plasma insulin level at which substantial loss of body fat (decrease of 10 kg or more) occurred ([3]; FIG. 5, fasting insulin at 6 months, mean DZX dose in this subgroup 630±56 mg, about 30 pmol/L): below 4.5 mU/L
- Urate ([3]; after 6 months Diazoxide, baseline 0.37 ± 0.01, P<0.02): 0.32 ± 0.02 mmol/L
- HDL-Cholesterol ([3]; after 6 months Diazoxide, baseline 1.12 ± 0.07, P<0.05): 1.25 ± 0.09 mmol/L
- Triglycerides ([3]; after 6 months Diazoxide, baseline 2.17 ± 0.26, P<0.001): 1.08 ± 0.13 mmol/L
- LDL-Cholesterol ([3]; after 6 months Diazoxide, baseline 3.19 ± 0.32, NS): 2.97 ± 0.23 mmol/L
- HbA1c ([3]; after 6 months Diazoxide, baseline 5.4 ± 0.1, P<0.02): 5.9 ± 0.2%
- Adiponectin ([3]; after 6 months Diazoxide, baseline 6.4 ± 0.5, P<0.001): 12.5 ± 1.2 mg/L
- BMI ([3]; after 6 months Diazoxide, baseline 33.8 ± 0.5, P<0.001): 31.0 ± 0.7 kg/m^2
- Diastolic BP ([3]; after 6 months Diazoxide, baseline 85.8 ± 2.1, P<0.001): 74.9 ± 2.1 mmHg
- Waist circumference ([3]; after 6 months Diazoxide, P<0.001): 107.7 ± 2.2 cm
- Waist circumference ([3]; after 6 months Diazoxide, P<0.001, listed as DZX): 107.7±2.2 cm
- Systolic BP ([3]; after 6 months Diazoxide, baseline 128.8 ± 3.2, NS): 128.8 ± 3.0 mmHg
- Glucosuria in fasting morning urine samples ([3]; during six months of treatment): not observed
- discontinuation because of side-effects ([3]; of eighteen obese men included): two men stopped because of side-effects (rash and edema, respectively)
- mean weight loss ([3]; subgroup with weight loss between 5 and 10% (4/14 men)): 6.7±0.5%
- mean weight loss ([3]; subgroup with weight loss less than 5% (5/14 men)): 3.1±0.8%
- mean weight loss ([3]; subgroup with weight loss more than 10% (5/14 men)): 15.7±0.7%
- concentration at 150 min [4]: 50000 ± 5800 ng/mL
- effect on fasting or postprandial glucose levels (plasma insulin levels; [10]): without affecting fasting or postprandial glucose levels
- reduction of plasma insulin levels (plasma insulin levels; [10]): about 20%
- effect on plasma glucose and insulin levels (plasma insulin levels; oral 150 and 225 mg per day divided in three dosages): no significant effect
- reduction of AUCIns ([5]; 6 months vs baseline, P<0.001): 63%
- reduction of fasting insulin levels ([5]; 6 months vs baseline, P<0.001): 65%
- reduction of post-meal insulin peak levels ([5]; 6 months vs baseline, P<0.001): 62%
- increase of fasting glucose ([5]; 6 months vs baseline, P<0.01): 0.8 ± 0.3 mmol/L
- rise of AUCGluc ([5]; 6 months vs baseline, P<0.02): 29%
- increase of peak glucose ([5]; 6 months vs baseline, P=0.06): 1.4 ± 0.7 mmol/L
- increase of whole body insulin sensitivity ([5]; 6 months vs baseline, printed 95% CI: 60-145%, P<0.001): 209%
- Whole Body Insulin Sensitivity ([5]; after 6 months Diazoxide, baseline 3.0 ± 0.3, P<0.001): 8.8 ± 1.2
- Fasting glucose ([5]; after 6 months Diazoxide, baseline 5.5 ± 0.2, P<0.01): 6.3 ± 0.3 mmol/L
- Fasting Insulin ([5]; after 6 months Diazoxide, baseline 18.0 ± 2.3, P<0.001): 5.6 ± 0.7 mU/L
- Peak glucose ([5]; meal test after 6 months Diazoxide, baseline 8.4 ± 0.3, NS): 9.8 ± 0.7 mmol/L
- AUC insulin ([5]; meal test after 6 months Diazoxide, baseline 16.6 ± 2.1, P<0.001): 5.4 ± 0.4 mU · 10^−3/L · min
- Peak Insulin ([5]; meal test after 6 months Diazoxide, baseline 124 ± 17, P<0.001): 35 ± 4 mU/L
- effect on blood glucose and insulin levels [6]: effective to normalize blood glucose and insulin levels
- plasma level ([7]; after six months, mean dosage about 585 mg/day): about 49 mg/l
- body weight ([7]; after six months, mean dosage about 585 mg/day, from about 114 kg): about 103 kg
- tolerability of higher dosages ([7]; dose raised monthly from 150 to ultimately 900 mg/day): generally not tolerated due to side effects, in particular hyperglycaemia and edema
- effect on weight loss [8]: No effect

Structure (SMILES): CC(C)CC(N(C)C)C1(c2ccc(Cl)cc2)CCC1 (stereo not shown) [Sibutramine]
- (placebo-subtracted) net weight loss [1]: about 5 kg

— US20100234362A1, “USE OF DIAZOXIDE FOR SUPPRESSING THE PLASMA INSULIN LEVEL IN A MAMMAL” (priority 2007, published 2010)
